Experimental data reported in patent US12459908B2, “Alpha, beta unsaturated methacrylic esters with anti-inflammatory properties” (Sitryx Therapeutics Limited, priority 2020, dated 2025).

Experiments:
IL-1β = experiment: THP-1 AlphaLISA IL-1β cytokine inhibition assay (differentiated THP-1 cells); type: cell-based; conditions: LPS 24 hr then Nigericin 1 hour
Method: Biological Example 1—THP-1 AlphaLISA IL-1β
Measuring Inhibitory Effects on IL-1, Cytokine Output from THP-1s
(§1) The cytokine inhibition profiles of compounds of formula (I) were determined in a differentiated THP-1 cell assay. All assays were performed in RPMI-1640 growth medium (Gibco), supplemented with 10% fetal bovine serum (FBS; Gibco), 1% penicillin-streptomycin and 1% sodium pyruvate unless specified otherwise. The IL-1p cytokine inhibition assay was run in a background of differentiated THP-1 cells as described below. All reagents described were from Sigma-Aldrich unless specified otherwise. Compounds were prepared as 10 mM DMSO stocks.
(§2) THP-1 cells were expanded as a suspension up to 80% confluence in appropriate growth medium. Cells were harvested, suspended, and treated with an appropriate concentration of phorbol 12-myristate 13-acetate (PMA) over a 72 hr period (37° C./5% CO2).
(§3) Following 72 hrs of THP-1 cell incubation, cellular medium was removed and replaced with fresh growth media containing 1% of FBS. Working concentrations of compounds were prepared separately in 10% FBS treated growth medium and pre-incubated with the cells for 30 minutes (37° C./5% CO2). Following the 30 minute compound pre-incubation, THP-1s were treated with an appropriate concentration of LPS and the cells were subsequently incubated for a 24 hr period (37° C./5% CO2). An appropriate final concentration of Nigericin was then dispensed into the THP-1 plates and incubated for 1 hour (37° C./5% CO2) before THP-1 supernatants were harvested and collected in separate polypropylene 96-well holding plates.
(§4) Reagents from an IL-1β and IL-6 commercial kit (Perkin Elmer) were prepared and run according to the manufacturer's instructions. Subsequently, fluorescence signal detection in a microplate reader was measured (EnVision® Multilabel Reader, Perkin Elmer).
(§5) Percentage inhibition was calculated per cytokine by normalising the sample data to the high and low controls used within each plate (+/−LPS respectively). Percentage inhibition was then plotted against compound concentration and the 50% inhibitory concentration (IC50) was determined from the resultant concentration-response curve.

NRF2 = NRF2 activation assay (DiscoverX PathHunter NRF2 translocation kit, U2OS cells); type: cell-based; conditions: 6 hours
Method: Biological Example 2—NRF2 Activation Assay
Measuring Compound Activation Effects on the Anti-Inflammatory Transcription Factor NRF2 in DiscoverX PathHunter NRF2 Translocation Kit
Potency and efficacy of compounds of formula (I) against the target of interest to activate NRF2 (nuclear factor erythroid 2-related factor 2) were determined using the PathHunter NRF2 translocation kit (DiscoverX). The NRF2 translocation assay was run using an engineered recombinant cell line, utilising enzyme fragment complementation to determine activation of the Keap1-NRF2 protein complex and subsequent translocation of NRF2 into the nucleus. Enzyme activity was quantified using a chemiluminescent substrate consumed following the formation of a functional enzyme upon PK-tagged NRF2 translocation into the nucleus.
Additionally, a defined concentration of DMF was used as the ‘High’ control to normalise test compound activation responses to.
U2OS PathHunter eXpress cells were thawed from frozen prior to plating. Following plating, U2OS cells were incubated for 24 hrs (37° C./5% CO2) in commercial kit provided cell medium.
Following 24 hrs of incubation, plated U2OS cells were directly treated with an appropriate final concentration of compound. […]
Following compound treatment, the U2OS plates were incubated for a further 6 hours (37° C./5% CO2) before detection reagent from the PathHunter NRF2 commercial kit was prepared and added to test plates according to the manufacturer's instructions. Subsequently, the luminescence signal detection was measured in a microplate reader (PHERAstar®, BMG Labtech).
Percentage activation was calculated by normalising the sample data to the high and low controls used within each plate (+/−DMF). Percentage activation/response was then plotted against compound concentration and the 50% activation concentration ([…]) was determined from the plotted concentration-response curve.

[1] = tested on: cryo-preserved hepatocytes; experiment: Hepatocyte stability assay, mouse cryopreserved hepatocytes; type: in vitro ADME
From the text: (§6) Biological Example 3—Hepatocyte Stability Assay
(§7) Defrosted cryo-preserved hepatocytes (viability >70%) were used to determine the metabolic stability of a compound via calculation of intrinsic clearance (CIint; a measure of the removal of a compound from the liver in the absence of blood flow and cell binding). Clearance data are particularly important for in vitro work as they can be used in combination with in vivo data to predict the half-life and oral bioavailability of a drug.
(§8) The metabolic stability in hepatocytes assay involves a time-dependent reaction using both positive and negative controls. The cells were pre-incubated at 37° C. and spiked with test compound (and positive control); samples taken at pre-determined time intervals were analysed to monitor the change in concentration of the initial drug compound over 60 minutes. A buffer incubation reaction (with no hepatocytes present) acted as a negative control and two cocktail solutions, containing compounds with known high and low clearance values (verapamil/7-hydroxycoumarin and propranolol/diltiazem), acted as positive controls. • 1. The assay was run with a cell concentration of 0.5×10^6 cells/mL in Leibovitz buffer. • 2. All compounds and controls were run in duplicate. • 3. Compound concentration was 10 μM. • 4. All compounds and controls were incubated with both cells and buffer to show turnover was due to hepatic metabolism. • 5. All wells on the incubation plate had 326.7 μL of either cells or buffer added. • 6. Prior to assay, cell and buffer-only incubation plates were preincubated for 10 mins at 37° C. • 7. The assay was initiated by adding compounds, 3.3 μL of 1 mM in 10% DMSO-90% Buffer; final DMSO concentration is 0.1%. • 8. Samples were taken at regular timepoints (0, 5, 10, 20, 40, 60 min) until 60 mins. • 9. Sample volume was 40 μL and was added to 160 μL of crash solvent (acetonitrile with internal standard) and stored on ice. • 10. At the end of the assay, the crash plates were centrifuged at 3500 rpm for 20 mins at 4° C. • 11. 80 μL of clear supernatant was removed and mixed with 80 μL of deionised water before being analysed by LC-MS/MS.
(§9) Raw LC-MS/MS data was exported to, and analysed in, Microsoft Excel for determination of intrinsic clearance. The percentage remaining of a compound was monitored using the peak area of the initial concentration as 100%. Intrinsic clearance and half-life values were calculated using a graph of the natural log of percentage remaining versus the time of reaction in minutes. Half-life (min) and intrinsic clearance (CIint in μL min^−1 10^−6 cells) values were calculated using the gradient of the graph (the elimination rate constant, k) and Equations 1 and 2.

[2] = as above; type: in vitro ADME; conditions: cryopreserved hepatocytes, Mouse hepatocytes, 10 μM, 60 min, read-out: T½
From the text: as §6, §7, §8, §9

[3] = tested on: cryo-preserved hepatocytes; experiment: Hepatocyte stability assay, human cryopreserved hepatocytes; type: in vitro ADME
From the text: as §6, §7, §8, §9

[4] = as above; type: in vitro ADME; conditions: cryopreserved hepatocytes, Human hepatocytes, 10 μM, 60 min, read-out: T½
From the text: as §6, §7, §8, §9

IL-6 = experiment: THP-1 AlphaLISA IL-6 cytokine inhibition assay (differentiated THP-1 cells); type: cell-based; conditions: LPS 24 hr then Nigericin 1 hour
Method: as §1, §2, §3, §4, §5

[5] = Mouse hepatocytes, 10 μM, 60 min, numeric values
[6] = Human hepatocytes, 10 μM, 60 min, numeric values
[7] = Homo sapiens, normalised to DMF high control, class symbols
[8] = Mouse hepatocytes, 10 μM, 60 min, class symbols
[9] = compared to 4-octyl itaconate, ethyl 2-(2-chlorobenzyl)acrylate and 2-(2-chlorobenzyl)acrylic acid

## C=C(Cc1ccccc1Cl)C(=O)O [2-(2-chlorobenzyl)acrylic acid, reference compound]
IL-1β; Homo sapiens, numeric values
  IC50: > 100 µM
NRF2; Homo sapiens, normalised to DMF high control, numeric values
  Emax: 2%
NRF2; Homo sapiens, numeric values
  EC50: > 100 µM
[1]; [5]
  Clint: 95 μL min^−1 10^−6 cells
[2]; numeric values
  half-life at 10 μM: 11 min
[3]; [6]
  Clint: 21 μL min^−1 10^−6 cells
[4]; numeric values
  half-life at 10 μM: 59 min

## C=C(CC(=O)OCCCCCCCC)C(=O)O [4-octyl itaconate, reference compound]
IL-1β; numeric values
  IC50: 33 µM
NRF2; normalised to DMF high control, numeric values
  NRF2 activation Emax: 165%
NRF2; numeric values
  EC50: 22 µM
[1]; [5]
  Clint: 351 μL min^−1 10^−6 cells
  T½: 4 min
IL-6; numeric values
  IC50: 25 µM
[3]; [6]
  Clint: 401 μL min^−1 10^−6 cells
  T½: 4 min

## C=C(Cc1nc(Cc2ccc(Cl)cc2)no1)C(=O)OCC(=O)O [Example 3, 2-((2-((3-(4-chlorobenzyl)-1,2,4-oxadiazol-5-yl)methyl)acryloyl)oxy)acetic acid]
IL-1β; Homo sapiens, class symbols
  IC50: 11 to 20 µM
NRF2; Homo sapiens, class symbols
  EC50: 11 to 21 µM
NRF2; [7]
  Emax: 135 to 165%
[1]; [8]
  Clint: +++ (For Clint (μL min^−1 10^−6 cells; mouse), +++ means <95)
[1]; [9]
  Stability in mouse hepatocytes compared to comparators: more stable
[2]; class symbols
  half-life at 10 μM: > 11 min
[3]; [9]
  Stability in human hepatocytes compared to comparators: more stable
[4]; class symbols
  half-life at 10 μM: > 100 min

## C=C(Cc1nc(Cc2ccc(CCCC)cc2)no1)C(=O)O[C@@H](CC(=O)O)C(F)(F)F [Example 10, (S)-3-((2-((3-(4-butylbenzyl)-1,2,4-oxadiazol-5-yl)methyl)acryloyl)oxy)-4,4,4-trifluorobutanoic acid]
IL-1β; Homo sapiens, class symbols
  IC50: < 5 µM
NRF2; Homo sapiens, class symbols
  EC50: < 5 µM
NRF2; [7]
  Emax: 135 to 165%
[1]; [8]
  Clint: + (+ means ≥351)
[2]; class symbols
  half-life at 10 μM: ≤ 4 min
IL-6; Homo sapiens, class symbols
  IC50: < 5 µM
[4]; class symbols
  half-life at 10 μM: < 5 min

## C=C(Cc1nc(Cc2ccc(CCCC)cc2)no1)C(=O)OCC(=O)O [Example 13, 2-((2-((3-(4-butylbenzyl)-1,2,4-oxadiazol-5-yl)methyl)acryloyl)oxy)acetic acid]
IL-1β; Homo sapiens, class symbols
  IC50: < 5 µM
NRF2; Homo sapiens, class symbols
  EC50: < 5 µM
NRF2; [7]
  Emax: 166 to 250%
[1]; [8]
  Clint: + (+ means ≥351)
[2]; class symbols
  half-life at 10 μM: ≤ 4 min
IL-6; Homo sapiens, class symbols
  IC50: < 5 µM
[4]; class symbols
  half-life at 10 μM: 5 to 59 min

## C=C(Cc1nc(Cc2ccc(CCCC)cc2)no1)C(=O)OCCc1nnn[nH]1 [Example 14, 2-(1H-tetrazol-5-yl)ethyl 2-((3-(4-butylbenzyl)-1,2,4-oxadiazol-5-yl)methyl)acrylate]
IL-1β; Homo sapiens, class symbols
  IC50: < 5 µM
NRF2; Homo sapiens, class symbols
  EC50: < 5 µM
NRF2; [7]
  Emax: 135 to 165%
[1]; [8]
  Clint: + (+ means ≥351)
[2]; class symbols
  half-life at 10 μM: ≤ 4 min
IL-6; Homo sapiens, class symbols
  IC50: < 5 µM
[4]; class symbols
  half-life at 10 μM: 5 to 59 min

## C=C(Cc1nc(Cc2ccc(CCCC)cc2)no1)C(=O)OCc1nnn[nH]1 [Example 16, (1H-tetrazol-5-yl)methyl 2-((3-(4-butylbenzyl)-1,2,4-oxadiazol-5-yl)methyl)acrylate]
IL-1β; Homo sapiens, class symbols
  IC50: < 5 µM
NRF2; Homo sapiens, class symbols
  EC50: < 5 µM
NRF2; [7]
  Emax: 135 to 165%
[1]; [8]
  Clint: + (+ means ≥351)
[2]; class symbols
  half-life at 10 μM: ≤ 4 min
IL-6; Homo sapiens, class symbols
  IC50: < 5 µM
[4]; class symbols
  half-life at 10 μM: 5 to 59 min

## C=C(Cc1nc(C2(c3ccc(Br)cc3)CC2)no1)C(=O)OCC(=O)O [Example 18, 2-((2-((3-(1-(4-bromophenyl)cyclopropyl)-1,2,4-oxadiazol-5-yl)methyl)acryloyl)oxy)acetic acid]
IL-1β; Homo sapiens, class symbols
  IC50: < 5 µM
NRF2; Homo sapiens, class symbols
  EC50: 5 to 10 µM
NRF2; [7]
  Emax: 166 to 250%
[1]; [8]
  Clint: ++ (++ means 95-350)
[2]; class symbols
  half-life at 10 μM: 5 to 11 min
IL-6; Homo sapiens, class symbols
  IC50: < 5 µM
[4]; class symbols
  half-life at 10 μM: 60 to 100 min

## C=C(Cc1nc(C2(c3ccc(OC(F)(F)F)cc3)CC2)no1)C(=O)OCC(=O)O [Example 19, 2-((2-((3-(1-(4-(trifluoromethoxy)phenyl)cyclopropyl)-1,2,4-oxadiazol-5-yl)methyl)acryloyl)oxy)acetic acid]
IL-1β; Homo sapiens, class symbols
  IC50: < 5 µM
NRF2; Homo sapiens, class symbols
  EC50: 5 to 10 µM
NRF2; [7]
  Emax: 166 to 250%
[1]; [8]
  Clint: ++ (++ means 95-350)
[2]; class symbols
  half-life at 10 μM: 5 to 11 min
IL-6; Homo sapiens, class symbols
  IC50: < 5 µM
[4]; class symbols
  half-life at 10 μM: 5 to 59 min

## C=C(Cc1nc(C2(c3ccc(SC(F)(F)F)cc3)CC2)no1)C(=O)OCC(=O)O [Example 22, 2-((2-((3-(1-(4-((trifluoromethyl)thio)phenyl)cyclopropyl)-1,2,4-oxadiazol-5-yl)methyl)acryloyl)oxy)acetic acid]
IL-1β; Homo sapiens, class symbols
  IC50: < 5 µM
NRF2; Homo sapiens, class symbols
  EC50: < 5 µM
NRF2; [7]
  Emax: 135 to 165%
[1]; [8]
  Clint: + (+ means ≥351)
[2]; class symbols
  half-life at 10 μM: ≤ 4 min
IL-6; Homo sapiens, class symbols
  IC50: < 5 µM
[4]; class symbols
  half-life at 10 μM: 5 to 59 min

## C=C(Cc1ccccc1Cl)C(=O)OCC [ethyl 2-(2-chlorobenzyl)acrylate, reference compound]
IL-1β; Homo sapiens, numeric values
  IC50: > 100 µM
[1]; [5]
  Clint: >460 μL min^−1 10^−6 cells
[2]; numeric values
  half-life at 10 μM: < 3 min
[3]; [6]
  Clint: >460 μL min^−1 10^−6 cells
[4]; numeric values
  half-life at 10 μM: < 3 min
